What was measured:
[1] = target: T1, α1βB glycine receptor (ZF-α1GlyR subunit) (Danio rerio, UniProt O93430+Q6DC22); test: cryo-EM structure, […] Å ([…] glycine); EC50 from whole-cell currents in HEK […] T cells (homomeric α[…]); format: cell-based; design: gene glra1; full-length α1GlyR (NP_571477.1) with C-terminal thrombin site and 8xHis tag, 4α:1β heteropentamer; with βBGlyR (glrbb, NP_001003587.1); rat gephyrin E domain co-purified (not resolved)
T1 sequence (O93430 25-444): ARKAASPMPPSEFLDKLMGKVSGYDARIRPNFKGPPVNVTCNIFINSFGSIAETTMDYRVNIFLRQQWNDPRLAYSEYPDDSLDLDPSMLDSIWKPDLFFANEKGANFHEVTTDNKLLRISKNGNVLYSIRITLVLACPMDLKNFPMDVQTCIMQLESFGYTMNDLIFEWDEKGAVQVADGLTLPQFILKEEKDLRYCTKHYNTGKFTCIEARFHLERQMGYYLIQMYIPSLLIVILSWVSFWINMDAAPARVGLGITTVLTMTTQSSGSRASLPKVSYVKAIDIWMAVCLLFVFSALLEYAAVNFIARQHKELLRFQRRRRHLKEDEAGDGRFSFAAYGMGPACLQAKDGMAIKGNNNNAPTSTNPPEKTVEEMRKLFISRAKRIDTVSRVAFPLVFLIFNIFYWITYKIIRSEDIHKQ
T1 sequence (Q6DC22 23-494): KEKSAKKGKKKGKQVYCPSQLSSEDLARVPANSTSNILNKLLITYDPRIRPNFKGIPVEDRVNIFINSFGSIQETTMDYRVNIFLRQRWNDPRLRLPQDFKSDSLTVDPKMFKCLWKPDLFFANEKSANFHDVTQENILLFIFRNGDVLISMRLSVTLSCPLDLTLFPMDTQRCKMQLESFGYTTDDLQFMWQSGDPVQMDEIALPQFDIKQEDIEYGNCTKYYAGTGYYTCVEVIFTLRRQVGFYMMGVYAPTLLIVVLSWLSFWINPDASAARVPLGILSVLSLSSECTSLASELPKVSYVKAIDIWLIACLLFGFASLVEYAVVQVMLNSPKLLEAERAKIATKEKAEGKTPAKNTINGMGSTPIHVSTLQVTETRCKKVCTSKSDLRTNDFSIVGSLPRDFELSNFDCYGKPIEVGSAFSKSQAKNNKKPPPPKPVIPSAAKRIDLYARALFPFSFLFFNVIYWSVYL
Excerpt: The carboxyl oxygens form hydrogen bonds with αS153 (βS173) on Loop E

[2] = target: T1, α1βB glycine receptor (ZF-α1GlyR subunit); design: gene glra1
[3] = target: T2, zebrafish glycine receptor βB subunit (ZF-βBGlyR), full length (zebrafish, UniProt Q6DC22 1-494, N-glycans at N54 and N241); test: cryo-EM structure; αβGlyR-Geph-E sample co-expressed in Sf9 and co-purified in DDM, vitrified on graphene-oxide grids with 100 µM strychnine, 1 mM glycine, or 1 mM glycine and 20 µM ivermectin; no fiduciary marker; settings: partners not purified
T2 construct: glycine receptor βB subunit, zebrafish, NCBI NP_001003587.1, codon-optimised full-length gene; One copy stands in the αβGlyR heteropentamer (4α:1β); also called βGlyR; GlyRβB; source: Sf9 (ExpiSf9) cells, baculovirus (pFastBacDual, polyhedrin promoter), co-expressed with α1GlyR and Geph-E
T2 sequence (looked up): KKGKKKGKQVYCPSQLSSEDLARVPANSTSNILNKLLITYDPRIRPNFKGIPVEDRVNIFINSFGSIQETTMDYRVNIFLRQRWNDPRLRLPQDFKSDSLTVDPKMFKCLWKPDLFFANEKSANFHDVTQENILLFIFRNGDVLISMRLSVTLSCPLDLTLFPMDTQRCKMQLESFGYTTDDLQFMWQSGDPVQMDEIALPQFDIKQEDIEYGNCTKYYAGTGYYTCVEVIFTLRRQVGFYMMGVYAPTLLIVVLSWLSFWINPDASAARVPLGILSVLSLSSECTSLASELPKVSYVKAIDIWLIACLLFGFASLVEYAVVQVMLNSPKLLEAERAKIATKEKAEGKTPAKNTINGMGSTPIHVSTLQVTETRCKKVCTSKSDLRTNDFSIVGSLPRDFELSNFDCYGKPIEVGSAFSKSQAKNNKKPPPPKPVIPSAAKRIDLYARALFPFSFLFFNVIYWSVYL

## NCC(=O)O [glycine]
[1]
  EC50: 63 ± 13 µM

## O=C1C[C@@H]2OCC=C3CN4CC[C@]56c7ccccc7N1[C@H]5[C@H]2[C@H]3C[C@H]46 [strychnine]
[2]
  cryo-EM structure, 2.97 Å (100 μM strychnine): Strychnine density is well-defined in αβGlyR-Stry and is essentially in the same orientation across all five subunits

B1: zebrafish glycine receptor α1 subunit (ZF-α1GlyR), full length (receptor, UniProt O93430 25-444, looked up)
chain: T1 sequence (O93430 25-444)
modifications: N-glycan at N62
notes: glycine receptor α1 subunit, zebrafish, NCBI NP_571477.1, codon-optimised full-length gene; Four copies stand in the αβGlyR heteropentamer (4α:1β); The full-length gene was expressed; also called αGlyR; GlyRα1; source: Sf9 (ExpiSf9) cells, baculovirus (pFastBacDual, p10 promoter), co-expressed with βBGlyR and Geph-E; not shown: 8x His (after a thrombin site LVPRGS), C-terminal, kept
[3]
  stoichiometry N: 4 α per β
